Experimental data: ChEMBL document CHEMBL1909046, “DrugMatrix in vitro pharmacology data”
pIC50, pKi: −log10 of the molar value.

Key:
[1] = molecular target: T1, Alpha-1A adrenergic receptor (Rattus norvegicus, UniProt P43140); test: DRUGMATRIX: Alpha-1A adrenergic receptor radioligand binding (ligand: prazosin); type: cell membranes, Wistar, Submaxillary gland, Membrane; settings: Not Active = under 50% inhibition at 10 µM; for pIC50: read-out: IC50; for pKi: read-out: Ki
T1 sequence (P43140 whole entry): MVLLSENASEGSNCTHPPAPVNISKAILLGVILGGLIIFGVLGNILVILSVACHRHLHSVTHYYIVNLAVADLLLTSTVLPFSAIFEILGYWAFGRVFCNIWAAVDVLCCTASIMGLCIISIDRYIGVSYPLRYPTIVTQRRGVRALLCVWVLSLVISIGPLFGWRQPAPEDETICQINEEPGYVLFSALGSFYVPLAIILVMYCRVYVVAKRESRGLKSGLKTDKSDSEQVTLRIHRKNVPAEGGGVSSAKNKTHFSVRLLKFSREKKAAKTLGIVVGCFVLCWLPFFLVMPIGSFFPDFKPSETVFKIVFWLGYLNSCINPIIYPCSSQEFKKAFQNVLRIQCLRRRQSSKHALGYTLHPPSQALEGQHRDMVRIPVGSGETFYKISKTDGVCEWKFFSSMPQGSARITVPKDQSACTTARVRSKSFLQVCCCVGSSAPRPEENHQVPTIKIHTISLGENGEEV

[2] = molecular target: Mitogen-activated protein kinase 1 (Homo sapiens, UniProt P28482); test: DRUGMATRIX: Protein Serine/Threonine Kinase, ERK2 enzyme inhibition (substrate: Myelin Basic Protein); parameters: species or system Escherichia coli; settings: Not Active = under 50% inhibition at 10 µM
Sequence of Mitogen-activated protein kinase 1 (P28482 whole entry): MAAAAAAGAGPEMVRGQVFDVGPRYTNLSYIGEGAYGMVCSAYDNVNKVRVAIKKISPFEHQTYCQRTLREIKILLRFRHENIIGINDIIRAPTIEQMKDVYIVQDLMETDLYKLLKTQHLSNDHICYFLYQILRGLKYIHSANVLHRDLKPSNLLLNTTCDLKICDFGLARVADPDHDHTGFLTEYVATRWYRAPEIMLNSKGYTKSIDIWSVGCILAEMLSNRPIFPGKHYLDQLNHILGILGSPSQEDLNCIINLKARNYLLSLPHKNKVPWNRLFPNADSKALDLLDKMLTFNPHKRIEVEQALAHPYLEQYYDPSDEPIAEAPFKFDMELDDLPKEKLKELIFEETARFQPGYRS

[3] = molecular target: Epidermal growth factor receptor (Homo sapiens, UniProt P00533); test: DRUGMATRIX: Protein Tyrosine Kinase, EGF Receptor enzyme inhibition (substrate: Poly(Glu:Tyr)); type: cell-based, Insect cells; settings: Not Active = under 50% inhibition at 10 µM; for pIC50: read-out: IC50
[4] = molecular target: T2, Receptor-type tyrosine-protein phosphatase C (Homo sapiens, UniProt P08575); parameters: species or system Escherichia coli;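 further: inhibition of CD45 enzyme activity measured using DiFMUP as substrate; in other assays of this panel Not Active means under 50% inhibition at 10 µM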
T2 sequence (P08575 whole entry): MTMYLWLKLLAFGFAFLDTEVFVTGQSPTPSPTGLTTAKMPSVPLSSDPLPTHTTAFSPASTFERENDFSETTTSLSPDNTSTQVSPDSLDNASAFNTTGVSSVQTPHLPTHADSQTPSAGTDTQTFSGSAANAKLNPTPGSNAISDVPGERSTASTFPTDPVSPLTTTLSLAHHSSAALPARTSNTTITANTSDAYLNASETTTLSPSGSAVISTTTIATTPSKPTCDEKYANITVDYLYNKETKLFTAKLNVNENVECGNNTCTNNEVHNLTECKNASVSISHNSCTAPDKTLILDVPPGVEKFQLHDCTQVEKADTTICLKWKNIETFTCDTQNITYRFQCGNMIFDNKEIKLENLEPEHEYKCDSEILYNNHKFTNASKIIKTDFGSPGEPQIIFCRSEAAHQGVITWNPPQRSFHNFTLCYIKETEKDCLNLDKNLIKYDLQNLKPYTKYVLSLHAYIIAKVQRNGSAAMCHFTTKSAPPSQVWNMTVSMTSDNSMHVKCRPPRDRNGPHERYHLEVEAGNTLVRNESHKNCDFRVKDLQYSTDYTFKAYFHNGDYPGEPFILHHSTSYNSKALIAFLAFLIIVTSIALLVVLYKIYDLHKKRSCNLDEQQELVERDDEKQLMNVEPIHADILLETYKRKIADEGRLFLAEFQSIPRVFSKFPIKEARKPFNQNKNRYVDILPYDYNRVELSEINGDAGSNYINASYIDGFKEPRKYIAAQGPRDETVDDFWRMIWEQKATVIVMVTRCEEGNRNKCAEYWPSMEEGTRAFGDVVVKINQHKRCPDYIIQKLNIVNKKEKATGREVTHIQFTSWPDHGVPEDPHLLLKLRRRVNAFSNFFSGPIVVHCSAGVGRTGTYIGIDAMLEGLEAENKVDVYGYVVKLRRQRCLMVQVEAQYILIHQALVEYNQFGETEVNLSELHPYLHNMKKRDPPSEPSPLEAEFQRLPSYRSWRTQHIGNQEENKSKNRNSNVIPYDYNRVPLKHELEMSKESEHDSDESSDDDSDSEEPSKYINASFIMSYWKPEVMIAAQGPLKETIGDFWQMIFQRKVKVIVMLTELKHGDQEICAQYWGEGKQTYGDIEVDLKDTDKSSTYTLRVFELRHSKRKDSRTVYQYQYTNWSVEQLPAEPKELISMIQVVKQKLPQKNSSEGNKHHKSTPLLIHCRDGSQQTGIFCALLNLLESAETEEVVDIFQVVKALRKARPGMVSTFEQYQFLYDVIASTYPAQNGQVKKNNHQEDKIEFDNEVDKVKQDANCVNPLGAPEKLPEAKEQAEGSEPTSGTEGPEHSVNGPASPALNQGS

[5] = molecular target: T3, Adenosine receptor A3 (Homo sapiens, UniProt P0DMS8); type: cell membranes, CHO-K1, Membrane; settings: for pIC50: read-out: IC50; for pKi: read-out: Ki;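 on all read-outs here: radioligand binding assay with AB-MECA serving as the labeled ligand; in other assays of this panel Not Active means under 50% inhibition at 10 µM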
T3 sequence (P0DMS8 whole entry): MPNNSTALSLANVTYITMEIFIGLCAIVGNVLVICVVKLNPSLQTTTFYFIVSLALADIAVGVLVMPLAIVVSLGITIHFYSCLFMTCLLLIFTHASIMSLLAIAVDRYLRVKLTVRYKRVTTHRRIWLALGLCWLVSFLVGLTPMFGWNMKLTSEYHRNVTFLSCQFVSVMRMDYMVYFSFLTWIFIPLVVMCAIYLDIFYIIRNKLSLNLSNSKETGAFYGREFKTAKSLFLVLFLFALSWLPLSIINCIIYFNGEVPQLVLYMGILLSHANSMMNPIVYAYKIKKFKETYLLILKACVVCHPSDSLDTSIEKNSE

[6] = molecular target: C-C chemokine receptor type 2 (Homo sapiens, UniProt P41597); type: cell membranes, Membrane; settings: cho-k1; further: in other assays of this panel Not Active means under 50% inhibition at 10 µM
Sequence of C-C chemokine receptor type 2 (P41597 whole entry): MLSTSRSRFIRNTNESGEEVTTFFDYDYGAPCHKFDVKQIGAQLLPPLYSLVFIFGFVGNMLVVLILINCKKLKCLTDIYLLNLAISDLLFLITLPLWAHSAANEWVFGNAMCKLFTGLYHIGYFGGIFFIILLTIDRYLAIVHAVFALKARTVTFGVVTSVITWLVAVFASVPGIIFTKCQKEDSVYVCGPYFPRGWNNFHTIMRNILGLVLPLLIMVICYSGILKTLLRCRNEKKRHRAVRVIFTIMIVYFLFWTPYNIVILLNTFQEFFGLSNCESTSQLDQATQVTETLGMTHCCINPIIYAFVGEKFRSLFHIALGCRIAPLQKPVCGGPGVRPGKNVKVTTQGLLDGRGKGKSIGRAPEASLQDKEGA

Row | Compound | IC50 [1] | IC50 [2] | IC50 ([3]; insect cells) | IC50 [4] | IC50 ([5]; cho-k1) | IC50 [6] | further results
1 | CCCCC(=O)N(Cc1ccc(-c2ccccc2-c2nnn[nH]2)cc1)[C@H](C(=O)O)C(C)C | Not Active | Not Active | Not Active | Not Active | Not Active |  | 
2 | O=C(O)COc1ccc(C(=O)c2cccs2)c(Cl)c1Cl | Not Active | Not Active | Not Active | Not Active | Not Active | Not Active | 
3 | CN1[C@@H]2CC[C@H]1C[C@@H](OC(c1ccccc1)c1ccccc1)C2 [BENZTROPINE] |  | Not Active | Not Active | Not Active | Not Active | Not Active | pIC50 [1]: 6.85; pKi [1]: 7.24
4 | C[C@@](Cc1ccc(O)c(O)c1)(NN)C(=O)O.O [CARBIDOPA] | Not Active | Not Active | Not Active | Not Active | Not Active | Not Active | 
5 | CN1CCN(C2=Nc3cc(Cl)ccc3Nc3ccccc32)CC1 [CLOZAPINE] |  | Not Active | Not Active | Not Active | Not Active | Not Active | 
6 | CC(C)NC[C@@H](O)COc1cccc2ccccc12 [DEXPROPRANOLOL] | Not Active | Not Active | Not Active | Not Active | Not Active | Not Active | 
7 | CC(C)NC[C@H](O)COc1cccc2ccccc12 [LEVOPROPRANOLOL] | Not Active | Not Active | Not Active | Not Active | Not Active | Not Active | 
8 | O=C(O)CCCCC1CCSS1 (stereo not drawn) [LIPOIC ACID, ALPHA] | Not Active | Not Active | Not Active | Not Active | Not Active | Not Active | 
9 | CN(C)C(=O)C(CCN1CCC(O)(c2ccc(Cl)cc2)CC1)(c1ccccc1)c1ccccc1 [LOPERAMIDE] |  | Not Active | Not Active | Not Active | Not Active | Not Active | pIC50 [1]: 5.21; pKi [1]: 5.60
10 | Clc1ccc(COC(Cn2ccnc2)c2ccc(Cl)cc2Cl)c(Cl)c1 (centres undefined) [MICONAZOLE] | Not Active | Not Active |  | Not Active |  | Not Active | pIC50 [3]: 4.53
11 | Oc1ccc2c3c1O[C@H]1[C@@H](O)CC[C@@]4(O)[C@@H](C2)N(CC2CCC2)CC[C@]314 [NALBUPHINE] | Not Active | Not Active | Not Active | Not Active | Not Active | Not Active | 
12 | C[C@]12C=CC(=O)C=C1CC[C@@H]1[C@@H]2C(=O)C[C@@]2(C)[C@H]1CC[C@]2(O)C(=O)CO [PREDNISONE] | Not Active | Not Active | Not Active | Not Active | Not Active | Not Active | 
13 | OCCOCCN1CCN(C2=Nc3ccccc3Sc3ccccc32)CC1 [QUETIAPINE] |  | Not Active | Not Active | Not Active | Not Active | Not Active | 
14 | COC(=O)[C@H]1[C@H]2C[C@@H]3c4[nH]c5cc(OC)ccc5c4CCN3C[C@H]2C[C@@H](OC(=O)c2cc(OC)c(OC)c(OC)c2)[C@@H]1OC [RESERPINE] | Not Active | Not Active | Not Active | Not Active | Not Active | Not Active | 
15 | O=C(O)c1ccccc1O [SALICYLIC ACID] | Not Active | Not Active | Not Active | Not Active | Not Active | Not Active | 
16 | C[S+]([O-])c1ccc(-c2nc(-c3ccncc3)c(-c3ccc(F)cc3)[nH]2)cc1 (centres undefined) [SB-203580] | Not Active |  |  | Not Active | Not Active | Not Active | 
17 | CC1CCC(NC(=O)N(CCCl)N=O)CC1 (centres undefined) [SEMUSTINE] | Not Active | Not Active | Not Active | Not Active | Not Active | Not Active | 
18 | O=C1C[C@@H]2OCC=C3CN4CC[C@]56c7ccccc7N1[C@H]5[C@H]2[C@H]3C[C@H]46 [STRYCHNINE] | Not Active | Not Active | Not Active | Not Active | Not Active | Not Active | 
19 | C[N+](C)(C)CCOC(=O)CCC(=O)OCC[N+](C)(C)C.[Cl-].[Cl-] [SUCCINYLCHOLINE CHLORIDE] | Not Active | Not Active | Not Active | Not Active | Not Active | Not Active | 
20 | Nc1ccc(S(=O)(=O)NC(=O)c2ccccc2)cc1 [SULFABENZAMIDE] | Not Active | Not Active | Not Active | Not Active | Not Active | Not Active | 
21 | CCCCCCCCNC(C)C(O)c1ccc(SC(C)C)cc1 (centres undefined) [SULOCTIDIL] | Not Active | Not Active |  | Not Active |  | Not Active | pIC50 [3]: 6.10; pIC50 [5]: 5.43; pKi [5]: 5.68
22 | O=c1[nH]c(=O)n(C2CCCO2)cc1F (centres undefined) [TEGAFUR] | Not Active | Not Active | Not Active | Not Active | Not Active | Not Active | 
23 | CC(=N)S [THIOACETAMIDE] | Not Active | Not Active | Not Active | Not Active | Not Active | Not Active | 
24 | Cc1ccc(C(=O)c2ccc(CC(=O)O)n2C)cc1 [TOLMETIN] | Not Active | Not Active | Not Active | Not Active | Not Active | Not Active | 
25 | CC(=O)OCC(COC(C)=O)OC(C)=O [TRIACETIN] | Not Active | Not Active | Not Active | Not Active | Not Active | Not Active | 
26 | CN1CCN(CCCN2c3ccccc3Sc3ccc(C(F)(F)F)cc32)CC1 [TRIFLUOPERAZINE] | Not Active | Not Active | Not Active | Not Active | Not Active | Not Active | 
27 | TRANSPLATIN | Not Active | Not Active |  | Not Active |  | Not Active | Ki [1]: Not Active; Ki [6]: Not Active; Ki [2]: Not Active; pIC50 ([3]; insect cells): 5.97; Ki [4]: Not Active; pIC50 ([5]; cho-k1): 6.00; pKi ([5]; cho-k1): 6.25
